Experimental data taken from patent publication US8192962B2, “Processes for detecting toxic substances” (Daikin Industries, Ltd., priority 2001, dated 2012).

Test system: Transport facilitation protein genes
Experiment: DNA chip mRNA expression in yeast, transport facilitation protein genes (Table 5)
Assay type: cell-based, Saccharomyces cerevisiae S288C
Procedure: Yeast (Saccharomyces cerevisiae S288C (α SUC2mal mel gap2 CUP1)) were incubated at 25° C. on YPD medium (yeast extract 1%, polypepton 2%, glucose 2%). One of toxic chemical substances was added to the cells at logarithmic growth phase, and the cells were further incubated for two hours. Cells were cultured without any chemical substance in the same condition, and were used as control. Concentrations of the chemical substances were defined to inhibit the growth of the yeast but not lead to death.
After completion of the incubation, the culture was centrifuged to collect the cells. To the cells, sodium acetate buffer (50 mM sodium acetate, 10 mM EDTA, 1% SDS) was added, and the mixture was shaken at 65° C. for five minutes, followed by returning to room temperature, and obtaining the supernatant, of which the procedures were repeated two times. To the supernatant, ½ amount of a solution of phenol/chloroform was added, and the mixture was centrifuged to give a supernatant, which was added with an equal amount of chloroform, and the mixture was centrifuged to give a supernatant. To the supernatant, an equal amount of isopropanol containing 0.3 M sodium acetate was added, and the mixture was allowed to stand at room temperature for 30 minutes, after which the mixture was centrifuged to give a sediment of the whole RNAs. Seventy % ethanol was added to the sediment, and the mixture was again centrifuged to give a sediment, which was then dried and dissolved in water. mRNA was isolated from the whole RNAs as followings. In view of the fact that a poly A chain is attached to the 3′ terminus of mRNA, a polynucleotide having a poly T structure which was immobilized on the surface of latex beads was used to trap the mRNA, and then the mRNA was washed and eluted with spine column (Oligotex-dT30<Super>mRNA Purification Kit, Takara). Reverse transcription of the mRNA was conducted with a reverse transcriptase (Super Script II Reverse Transcriptase; catalogue No. 18064-014, GibcoBRL) using fluorescence-labeled nucleotides to give cDNAs that were introduced with Cy3-dUTP or Cy5-dUTP during the reverse transcription.
The labeled cDNAs were dissolved in TE buffer (10mM Tris-HCl/1 mM EDTA, pH8.0), and the solution was dropped on the DNA chip containing the whole genes of yeast (DNA Chip Research Inc. Japan) so that the cDNAs were hybridized on the DNA chip at 65° C. for over 12 hours. The fluoresces intensity of the DNA chip was read with a scanner, and the ratio relative to the fluorescence intensity resulting from the absence of chemical substance was estimated as the following, which is shown in Tables 1 to 9: […]

Compound: CCCCCCCCCCCCc1ccc(S(=O)(=O)[O-])cc1.[Na+] [(17), sodium dodecylbenzosulfonate]
- The level of expressed mRNA in the presence of chemical substance/The level of expressed mRNA in the absence of chemical substance (yeast gene YBL030C): 1.0
- The level of expressed mRNA in the presence of chemical substance/The level of expressed mRNA in the absence of chemical substance (yeast gene YBL099W): 0.7
- The level of expressed mRNA in the presence of chemical substance/The level of expressed mRNA in the absence of chemical substance (yeast gene YBR052C): 1.8
- The level of expressed mRNA in the presence of chemical substance/The level of expressed mRNA in the absence of chemical substance (yeast gene YBR068C): 1.1
- The level of expressed mRNA in the presence of chemical substance/The level of expressed mRNA in the absence of chemical substance (yeast gene YBR127C): 0.8
- The level of expressed mRNA in the presence of chemical substance/The level of expressed mRNA in the absence of chemical substance (yeast gene YBR132C): 1.1
- The level of expressed mRNA in the presence of chemical substance/The level of expressed mRNA in the absence of chemical substance (yeast gene YBR207W): 1.2
- The level of expressed mRNA in the presence of chemical substance/The level of expressed mRNA in the absence of chemical substance (yeast gene YBR293W): 1.0
- The level of expressed mRNA in the presence of chemical substance/The level of expressed mRNA in the absence of chemical substance (yeast gene YBR294W): 1.0
- The level of expressed mRNA in the presence of chemical substance/The level of expressed mRNA in the absence of chemical substance (yeast gene YBR295W): 1.3
- The level of expressed mRNA in the presence of chemical substance/The level of expressed mRNA in the absence of chemical substance (yeast gene YBR298C): 0.9
- The level of expressed mRNA in the presence of chemical substance/The level of expressed mRNA in the absence of chemical substance (yeast gene YCL025C): 0.6
- The level of expressed mRNA in the presence of chemical substance/The level of expressed mRNA in the absence of chemical substance (yeast gene YCL038C): 1.4
- The level of expressed mRNA in the presence of chemical substance/The level of expressed mRNA in the absence of chemical substance (yeast gene YCR024C-A): 0.9
- The level of expressed mRNA in the presence of chemical substance/The level of expressed mRNA in the absence of chemical substance (yeast gene YCR037C): 1.4
- The level of expressed mRNA in the presence of chemical substance/The level of expressed mRNA in the absence of chemical substance (yeast gene YCR098C): 1.7
- The level of expressed mRNA in the presence of chemical substance/The level of expressed mRNA in the absence of chemical substance (yeast gene YDL128W): 0.9
- The level of expressed mRNA in the presence of chemical substance/The level of expressed mRNA in the absence of chemical substance (yeast gene YDL198C): 1.5
- The level of expressed mRNA in the presence of chemical substance/The level of expressed mRNA in the absence of chemical substance (yeast gene YDL210W): 1.1
- The level of expressed mRNA in the presence of chemical substance/The level of expressed mRNA in the absence of chemical substance (yeast gene YDL245C): 1.0
- The level of expressed mRNA in the presence of chemical substance/The level of expressed mRNA in the absence of chemical substance (yeast gene YDR038C): 1.3
- The level of expressed mRNA in the presence of chemical substance/The level of expressed mRNA in the absence of chemical substance (yeast gene YDR039C): 1.1
- The level of expressed mRNA in the presence of chemical substance/The level of expressed mRNA in the absence of chemical substance (yeast gene YDR086C): 1.4
- The level of expressed mRNA in the presence of chemical substance/The level of expressed mRNA in the absence of chemical substance (yeast gene YDR270W): 0.9
- The level of expressed mRNA in the presence of chemical substance/The level of expressed mRNA in the absence of chemical substance (yeast gene YDR298C): 1.1
- The level of expressed mRNA in the presence of chemical substance/The level of expressed mRNA in the absence of chemical substance (yeast gene YDR342C): 1.0
- The level of expressed mRNA in the presence of chemical substance/The level of expressed mRNA in the absence of chemical substance (yeast gene YDR343C): 1.1
- The level of expressed mRNA in the presence of chemical substance/The level of expressed mRNA in the absence of chemical substance (yeast gene YDR345C): 1.3
- The level of expressed mRNA in the presence of chemical substance/The level of expressed mRNA in the absence of chemical substance (yeast gene YDR387C): 1.2
- The level of expressed mRNA in the presence of chemical substance/The level of expressed mRNA in the absence of chemical substance (yeast gene YDR497C): 1.6
- The level of expressed mRNA in the presence of chemical substance/The level of expressed mRNA in the absence of chemical substance (yeast gene YEL027W): 1.0
- The level of expressed mRNA in the presence of chemical substance/The level of expressed mRNA in the absence of chemical substance (yeast gene YEL063C): 0.7
- The level of expressed mRNA in the presence of chemical substance/The level of expressed mRNA in the absence of chemical substance (yeast gene YEL065W): 0.7
- The level of expressed mRNA in the presence of chemical substance/The level of expressed mRNA in the absence of chemical substance (yeast gene YER053C): 1.2
- The level of expressed mRNA in the presence of chemical substance/The level of expressed mRNA in the absence of chemical substance (yeast gene YFL011W): 0.8
- The level of expressed mRNA in the presence of chemical substance/The level of expressed mRNA in the absence of chemical substance (yeast gene YFL041W): 1.1
- The level of expressed mRNA in the presence of chemical substance/The level of expressed mRNA in the absence of chemical substance (yeast gene YFL050C): 0.8
- The level of expressed mRNA in the presence of chemical substance/The level of expressed mRNA in the absence of chemical substance (yeast gene YFL054C): 1.7
- The level of expressed mRNA in the presence of chemical substance/The level of expressed mRNA in the absence of chemical substance (yeast gene YGL006W): 2.4
- The level of expressed mRNA in the presence of chemical substance/The level of expressed mRNA in the absence of chemical substance (yeast gene YGL008C): 1.1
- The level of expressed mRNA in the presence of chemical substance/The level of expressed mRNA in the absence of chemical substance (yeast gene YGL104C): 1.3
- The level of expressed mRNA in the presence of chemical substance/The level of expressed mRNA in the absence of chemical substance (yeast gene YGL167C): 1.4
- The level of expressed mRNA in the presence of chemical substance/The level of expressed mRNA in the absence of chemical substance (yeast gene YGL255W): 0.6
- The level of expressed mRNA in the presence of chemical substance/The level of expressed mRNA in the absence of chemical substance (yeast gene YGR055W): 0.7
- The level of expressed mRNA in the presence of chemical substance/The level of expressed mRNA in the absence of chemical substance (yeast gene YGR065C): 0.7
- The level of expressed mRNA in the presence of chemical substance/The level of expressed mRNA in the absence of chemical substance (yeast gene YGR082W): 0.9
- The level of expressed mRNA in the presence of chemical substance/The level of expressed mRNA in the absence of chemical substance (yeast gene YGR096W): 0.8
- The level of expressed mRNA in the presence of chemical substance/The level of expressed mRNA in the absence of chemical substance (yeast gene YGR138C): 0.7
- The level of expressed mRNA in the presence of chemical substance/The level of expressed mRNA in the absence of chemical substance (yeast gene YGR191W): 0.8
- The level of expressed mRNA in the presence of chemical substance/The level of expressed mRNA in the absence of chemical substance (yeast gene YGR197C): 1.7
